Results: the NIST ThermoML archive (doi:10.1021/je800316b)

Details: Liquid

CCOS(=O)(=O)[O-].CCn1cc[n+](C)c1 [1-ethyl-3-methylimidazolium ethyl sulfate]
mass density [kg/m3]
Details | 100 kPa | 2500 kPa | 5000 kPa | 7500 kPa | 10000 kPa | 15000 kPa | 20000 kPa | 25000 kPa | 30000 kPa | 35000 kPa
293.15 K | 1246.9 | 1249 | 1250.2 | 1251.3 | 1252.3 | 1254.3 | 1256.5 | 1258.5 | 1260.5 | 1262.4
298.15 K | 1244.3 | 1245.2 | 1246.3 | 1247.4 | 1248.4 | 1250.6 | 1252.7 | 1254.8 | 1256.6 | 1258.7
303.15 K | 1240.8 | 1241.6 | 1242.7 | 1243.8 | 1244.9 | 1247 | 1249.1 | 1251.1 | 1253.2 | 1255.2
313.15 K | 1233.1 | 1234 | 1235.1 | 1236.2 | 1237.3 | 1239.5 | 1241.6 | 1243.7 | 1245.8 | 1247.9
333.15 K | 1218.3 | 1219.2 | 1220.4 | 1221.6 | 1222.7 | 1225 | 1227.2 | 1229.3 | 1231.5 | 1233.6
353.15 K | 1204.2 | 1205.3 | 1206.6 | 1207.8 | 1209 | 1211.4 | 1213.8 | 1216.1 | 1218.4 | 1220.6
373.15 K | 1190.1 | 1191.3 | 1192.6 | 1193.9 | 1195.2 | 1197.7 | 1200.2 | 1202.6 | 1204.9 | 1207.3
393.15 K | 1176.6 | 1178 | 1179.3 | 1180.7 | 1182 | 1184.6 | 1187.2 | 1189.7 | 1192.2 | 1194.6

CCCCCCCCCCn1cc[n+](C)c1.O=S(=O)([N-]S(=O)(=O)C(F)(F)F)C(F)(F)F
mass density [kg/m3]
Details | 100 kPa | 2500 kPa | 5000 kPa | 7500 kPa | 10000 kPa | 15000 kPa | 20000 kPa | 25000 kPa | 30000 kPa | 35000 kPa
293.15 K | 1282.4 | 1285.6 | 1287.4 | 1289.3 | 1291.1 | 1294.6 | 1298.1 | 1301.4 | 1304.7 | 1308
298.15 K | 1278 | 1280.8 | 1282.7 | 1284.6 | 1286.4 | 1290 | 1293.5 | 1297 | 1300.3 | 1303.6
303.15 K | 1273.6 | 1276.4 | 1278.3 | 1280.3 | 1282.1 | 1285.8 | 1289.4 | 1292.9 | 1296.3 | 1299.6
313.15 K | 1265.3 | 1267.3 | 1269.3 | 1271.3 | 1273.2 | 1277 | 1280.7 | 1284.2 | 1287.7 | 1291.1
333.15 K | 1245.5 | 1247.7 | 1249.8 | 1251.9 | 1254 | 1258 | 1261.9 | 1265.7 | 1269.4 | 1273
353.15 K | 1228.6 | 1230.9 | 1233.2 | 1235.5 | 1237.6 | 1242 | 1246.2 | 1250.2 | 1254.1 | 1257.9
373.15 K | 1209.6 | 1212.4 | 1214.8 | 1217.3 | 1219.6 | 1224.2 | 1228.6 | 1232.9 | 1237 | 1241.1
393.15 K | 1191.8 | 1195.8 | 1198.3 | 1200.9 | 1203.4 | 1208.2 | 1212.8 | 1217.3 | 1221.7 | 1225.9

CCn1cc[n+](CC)c1.O=S(=O)([N-]S(=O)(=O)C(F)(F)F)C(F)(F)F [1,3-diethylimidazolium bis[(trifluoromethyl)sulfonyl]imide]
mass density [kg/m3]
Details | 100 kPa | 2500 kPa | 5000 kPa | 7500 kPa | 10000 kPa | 15000 kPa | 20000 kPa | 25000 kPa | 30000 kPa | 35000 kPa
293.15 K | 1469.2 | 1471.1 | 1473.1 | 1475 | 1476.9 | 1480.8 | 1484.2 | 1487.9 | 1491.5 | 1495.2
298.15 K | 1463.2 | 1465.5 | 1467.6 | 1469.5 | 1471.4 | 1475.3 | 1479 | 1482.5 | 1486.1 | 1489.5
303.15 K | 1457.7 | 1460.1 | 1462.1 | 1463.9 | 1466.1 | 1469.8 | 1473.6 | 1477.1 | 1480.9 | 1484.3
313.15 K | 1447.3 | 1449.6 | 1451.6 | 1453.7 | 1455.8 | 1459.7 | 1463.5 | 1467.2 | 1470.9 | 1474.6
333.15 K | 1425.7 | 1428.2 | 1430.4 | 1432.6 | 1434.8 | 1439.1 | 1443.2 | 1447.2 | 1450.9 | 1454.8
353.15 K | 1404.5 | 1407.5 | 1409.9 | 1412.2 | 1414.5 | 1419 | 1423.4 | 1427.5 | 1431.6 | 1435.6
373.15 K | 1384.1 | 1386.9 | 1389.5 | 1391.9 | 1394.4 | 1399.1 | 1403.7 | 1408.1 | 1412.4 | 1416.7
393.15 K | 1364.2 | 1367.2 | 1369.9 | 1372.5 | 1375.1 | 1380.2 | 1384.9 | 1389.6 | 1394.3 | 1398.6

CCn1cc[n+](C)c1.COS(=O)(=O)[O-] [1-ethyl-3-methylimidazolium methylsulfate]
mass density [kg/m3]
Details | 100 kPa | 2500 kPa | 5000 kPa | 7500 kPa | 10000 kPa | 15000 kPa | 20000 kPa | 25000 kPa | 30000 kPa | 35000 kPa
293.15 K | 1292.1 | 1293 | 1294 | 1295 | 1296 | 1298 | 1299.9 | 1301.8 | 1303.7 | 1305.6
298.15 K | 1288 | 1289.1 | 1290.1 | 1291.1 | 1292.1 | 1294.1 | 1296.1 | 1298 | 1300 | 1301.9
303.15 K | 1283.3 | 1284.3 | 1285.4 | 1286.4 | 1287.4 | 1289.5 | 1291.4 | 1293.4 | 1295.3 | 1297.3
313.15 K | 1276.6 | 1277.8 | 1278.9 | 1279.9 | 1281 | 1283 | 1285.1 | 1287.1 | 1289.1 | 1291.1
333.15 K | 1260.9 | 1262.3 | 1263.4 | 1264.5 | 1265.6 | 1267.8 | 1269.9 | 1272 | 1274 | 1276.1
353.15 K | 1245.5 | 1247.5 | 1248.7 | 1249.9 | 1251.1 | 1253.4 | 1255.6 | 1257.8 | 1260 | 1262.2
373.15 K | 1231.4 | 1232.8 | 1234 | 1235.2 | 1236.4 | 1238.8 | 1241.2 | 1243.5 | 1245.7 | 1248
393.15 K | 1218.1 | 1219.2 | 1220.5 | 1221.8 | 1223.1 | 1225.5 | 1227.9 | 1230.3 | 1232.6 | 1234.9
